Laboratory results published in the NIST ThermoML archive (doi:10.1021/acs.jced.8b00358).

How the values were obtained:
[1] = molar heat capacity at constant pressure; details: 83 kPa, Liquid, DSC
[2] = 83 kPa, Liquid; for speed of sound: Frequency=3 MHz, Single path-length method; for mass density: Vibrating tube method

CCCCC(=O)OCC(COC(=O)CCCC)(COC(=O)CCCC)COC(=O)CCCC [pentaerythritol tetrapentanoate]
Details | mass density [kg/m3] | molar heat capacity at constant pressure [J/K/mol] | speed of sound [m/s]
[1], 263.14 K | – | 805.33 | –
[1], 264.15 K | – | 806.28 | –
[1], 265.15 K | – | 807.22 | –
[1], 266.14 K | – | 808.17 | –
[1], 267.14 K | – | 809.11 | –
[1], 268.15 K | – | 809.58 | –
[1], 269.14 K | – | 810.53 | –
[1], 270.14 K | – | 811.47 | –
[1], 271.15 K | – | 812.42 | –
[1], 272.14 K | – | 813.37 | –
[1], 273.14 K | – | 814.78 | –
[1], 274.14 K | – | 815.73 | –
[1], 275.15 K | – | 816.67 | –
[1], 276.14 K | – | 817.62 | –
[1], 277.14 K | – | 819.04 | –
[1], 278.15 K | – | 819.98 | –
[1], 279.15 K | – | 820.93 | –
[1], 280.15 K | – | 821.87 | –
[1], 281.14 K | – | 822.82 | –
[1], 282.15 K | – | 823.76 | –
[1], 283.15 K | – | 824.71 | –
[1], 284.15 K | – | 825.65 | –
[1], 285.15 K | – | 827.07 | –
[1], 286.14 K | – | 828.02 | –
[1], 287.14 K | – | 828.96 | –
[1], 288.15 K | – | 829.91 | –
[1], 289.15 K | – | 831.32 | –
[1], 290.14 K | – | 832.27 | –
[1], 291.14 K | – | 833.69 | –
[1], 292.14 K | – | 835.11 | –
[1], 293.14 K | – | 836.05 | –
[1], 294.15 K | – | 837.47 | –
[1], 295.14 K | – | 838.89 | –
[1], 296.15 K | – | 839.83 | –
[1], 297.14 K | – | 841.25 | –
[1], 298.14 K | – | 842.67 | –
[1], 299.15 K | – | 843.61 | –
[1], 300.14 K | – | 845.03 | –
[1], 301.15 K | – | 846.45 | –
[1], 302.14 K | – | 847.39 | –
[1], 303.15 K | – | 848.81 | –
[1], 304.15 K | – | 850.23 | –
[1], 305.14 K | – | 851.17 | –
[1], 306.15 K | – | 852.12 | –
[1], 307.15 K | – | 853.54 | –
[1], 308.14 K | – | 854.48 | –
[1], 309.14 K | – | 855.9 | –
[1], 310.15 K | – | 857.32 | –
[1], 311.15 K | – | 858.26 | –
[1], 312.14 K | – | 859.68 | –
[1], 313.15 K | – | 860.63 | –
[1], 314.14 K | – | 862.04 | –
[1], 315.15 K | – | 863.46 | –
[1], 316.14 K | – | 864.41 | –
[1], 317.15 K | – | 865.83 | –
[1], 318.15 K | – | 866.77 | –
[1], 319.14 K | – | 868.19 | –
[1], 320.15 K | – | 869.61 | –
[1], 321.15 K | – | 870.55 | –
[1], 322.14 K | – | 871.97 | –
[1], 323.14 K | – | 873.39 | –
[1], 324.15 K | – | 874.33 | –
[1], 325.14 K | – | 875.75 | –
[1], 326.15 K | – | 876.7 | –
[1], 327.15 K | – | 878.11 | –
[1], 328.15 K | – | 879.53 | –
[1], 329.14 K | – | 880.48 | –
[1], 330.15 K | – | 881.89 | –
[1], 331.15 K | – | 883.31 | –
[1], 332.14 K | – | 884.26 | –
[1], 333.14 K | – | 885.68 | –
[1], 334.15 K | – | 887.09 | –
[1], 335.14 K | – | 888.51 | –
[1], 336.14 K | – | 889.93 | –
[1], 337.14 K | – | 891.35 | –
[1], 338.14 K | – | 892.29 | –
[1], 339.15 K | – | 893.71 | –
[1], 340.14 K | – | 895.13 | –
[1], 341.14 K | – | 896.07 | –
[1], 342.15 K | – | 897.02 | –
[1], 343.14 K | – | 898.44 | –
[1], 344.15 K | – | 899.38 | –
[1], 345.15 K | – | 900.8 | –
[1], 346.15 K | – | 902.22 | –
[1], 347.14 K | – | 903.16 | –
[1], 348.14 K | – | 904.58 | –
[1], 349.15 K | – | 906 | –
[1], 350.14 K | – | 907.42 | –
[1], 351.14 K | – | 908.36 | –
[1], 352.14 K | – | 909.78 | –
[1], 353.14 K | – | 911.2 | –
[1], 354.15 K | – | 912.61 | –
[1], 355.14 K | – | 913.56 | –
[1], 356.15 K | – | 914.98 | –
[1], 357.15 K | – | 916.39 | –
[1], 358.14 K | – | 917.81 | –
[1], 359.15 K | – | 918.76 | –
[1], 360.15 K | – | 920.18 | –
[1], 361.14 K | – | 921.59 | –
[1], 362.15 K | – | 922.54 | –
[1], 363.15 K | – | 923.96 | –
[1], 364.14 K | – | 925.37 | –
[1], 365.14 K | – | 926.79 | –
[1], 366.15 K | – | 927.74 | –
[1], 367.14 K | – | 929.16 | –
[1], 368.14 K | – | 930.57 | –
[1], 369.14 K | – | 931.99 | –
[1], 370.14 K | – | 933.41 | –
[1], 371.15 K | – | 934.35 | –
[1], 372.14 K | – | 935.77 | –
[1], 373.14 K | – | 937.19 | –
[1], 374.15 K | – | 938.61 | –
[1], 375.14 K | – | 939.55 | –
[1], 376.14 K | – | 940.97 | –
[1], 377.14 K | – | 942.39 | –
[1], 378.15 K | – | 943.81 | –
[1], 379.15 K | – | 944.75 | –
[1], 380.14 K | – | 946.17 | –
[1], 381.15 K | – | 947.59 | –
[1], 382.14 K | – | 949.01 | –
[1], 383.14 K | – | 950.42 | –
[1], 384.14 K | – | 951.84 | –
[1], 385.15 K | – | 952.79 | –
[1], 386.14 K | – | 954.2 | –
[1], 387.14 K | – | 955.62 | –
[1], 388.15 K | – | 957.04 | –
[1], 389.15 K | – | 957.98 | –
[1], 390.14 K | – | 959.4 | –
[1], 391.15 K | – | 960.82 | –
[1], 392.15 K | – | 961.77 | –
[1], 393.15 K | – | 963.18 | –
[1], 394.15 K | – | 964.13 | –
[1], 395.15 K | – | 965.55 | –
[1], 396.14 K | – | 966.96 | –
[1], 397.14 K | – | 968.38 | –
[1], 398.14 K | – | 969.8 | –
[1], 399.14 K | – | 971.22 | –
[1], 400.15 K | – | 972.16 | –
[1], 401.14 K | – | 973.58 | –
[1], 402.14 K | – | 975 | –
[1], 403.15 K | – | 975.94 | –
[1], 404.15 K | – | 977.36 | –
[1], 405.14 K | – | 978.78 | –
[1], 406.15 K | – | 979.72 | –
[1], 407.14 K | – | 981.14 | –
[1], 408.14 K | – | 982.56 | –
[1], 409.14 K | – | 983.51 | –
[1], 410.15 K | – | 984.92 | –
[1], 411.15 K | – | 986.34 | –
[1], 412.14 K | – | 987.76 | –
[1], 413.15 K | – | 988.7 | –
[1], 414.15 K | – | 990.12 | –
[1], 415.15 K | – | 991.54 | –
[1], 416.14 K | – | 992.96 | –
[1], 417.15 K | – | 993.9 | –
[1], 418.15 K | – | 995.32 | –
[1], 419.15 K | – | 996.27 | –
[1], 420.14 K | – | 997.68 | –
[1], 421.15 K | – | 999.1 | –
[1], 422.15 K | – | 1000 | –
[1], 423.15 K | – | 1001.5 | –
[1], 424.14 K | – | 1002.9 | –
[1], 425.15 K | – | 1004.3 | –
[1], 426.15 K | – | 1005.2 | –
[1], 427.14 K | – | 1006.7 | –
[1], 428.15 K | – | 1008.1 | –
[1], 429.15 K | – | 1009 | –
[1], 430.14 K | – | 1010.4 | –
[1], 431.15 K | – | 1011.4 | –
[1], 432.15 K | – | 1012.8 | –
[2], 278.15 K | 1030.29 | – | 1417.7
[2], 283.15 K | 1026.21 | – | 1400.3
[2], 288.15 K | 1022.14 | – | 1383.2
[2], 293.15 K | 1018.08 | – | 1366.2
[2], 298.15 K | 1014.04 | – | 1349.3
[2], 303.15 K | 1010 | – | 1332.7
[2], 308.15 K | 1005.97 | – | 1316.2
[2], 313.15 K | 1001.94 | – | 1299.8
[2], 318.15 K | 997.92 | – | 1283.6
[2], 323.15 K | 993.9 | – | 1267.6
[2], 328.15 K | 989.89 | – | 1251.8
[2], 333.15 K | 985.88 | – | 1236.1
[2], 338.15 K | 981.88 | – | 1220.5
[2], 343.15 K | 977.88 | – | 1205.2
